Results on four molecules are retold here after US20090047655A1, “Method Of Screening Candidate Drug” (priority 2004, published 2009).

Like-named read-outs stand apart in the source and are kept apart here.

The conditions of data set [1]: mouse, in vivo; for AUC: uPA(+/+)/SCID. The text has this:
(§1) As for the chimeric mice, chimeric mice produced by Hiroshima Prefectural Institute of Industrial Science and Technology or PhoenixBio Co., Ltd. were used. To be more specific, mice in which human hepatocytes were engrafted and proliferated in the mouse liver were produced by transplanting human hepatocytes (IVT079, purchased from In Vitro Technology Inc., or BD51, purchased from BD Gentest Inc.) into the spleen of uPA(+/+)/SCID mice, which are mice having hepatic impairment and immunodeficiency. Mice in which 70% or more of the mouse liver had been replaced with human hepatocytes (high-replacement chimeric mice) and low-replacement chimeric mice in which although human hepatocytes had been transplanted, the replacement ratio was almost 0%, or untransplanted mice (mice with no replacement) were used (3 mice in each group). Further, as a control, 3 uPA(−/−)/SCID mice were used.
(§2) The concentration for administration of tolbutamide which is a standard drug for CYP2C9 was […]., and 4.175 mg of tolbutamide was weighed out and suspended in 1 ml of a CMC liquid in an agate mortar, and a 4.175 mg/ml suspension which is 5 times as high as the concentration for administration was prepared.
(§3) To the high-replacement chimeric mice, low-replacement chimeric mice (or mice with no replacement) and uPA(−/−)/SCID mice (3 mice in each group), 5 compounds were simultaneously administered orally by gavage or intravenously. The blood was collected from the tail vein of each mouse in an amount of 15 μl each at 0.25 (only intravenous administration), 0.5, 1, 2, 4 (only oral administration) and 8 hours after administration. Then, the blood was centrifuged at 3,500 rpm for 5 minutes, and the serum (supernatant) was collected and stored in a freezer at −30° C.
(§4) The serum samples were transported to Sumika Chemical Analysis Service, Ltd. while keeping it in dry ice, and subjected to measurement by LC-MS/MS according to the following procedure.
(§5) With regard to a liquid chromatograph, SIL-HTC and LC-10A series (Shimadzu Corporation) were used, and as a column, Synergi 4μ Polar-RP 80A, 150 mm (length)×2.00 mm (inner diameter), 4 μm (Phenomenex Inc.) was used at 30° C. As a mobile phase, methanol/a 10 mmol/l ammonium acetate solution/acetic acid (700/300/2, v/v/v) was used, and a flow rate was set at 0.2 ml/min. An injection volume was set at 2 μl, a measurement time was set at 10 min, and the temperature of an autosampler was set at 4° C. As a mass spectrometer, Tandem Mass Spectrometer API 4000 (Applied Biosystems/MDS SCIEX Inc.) was used. As API interface, Turbo V (ESI probe) was used, and as Ionization mode, Positive ion detection mode was used.
To Eppendorf tubes in which 5 μl of samples to be measured (serum) were contained, 100 μl of methanol was added, and 10 μl of 1 μg/ml of I.S. standard solution was added thereto, and then, the mixtures were thoroughly mixed by an ultrasonic treatment and a vortex mixer. […]
(§6) The determined values of the drug concentration in the serum were calculated from the peak area ratio obtained by the LC-MS/MS measurement of the samples for addition calibration curve. […] From the graphs, the peak serum concentration (Cmax), half-life (t1/2), area under the curve (AUC), bioavailability and clearance were analyzed, and pharmacokinetics in human was predicted.

A further data set is described as follows: in vivo.
From the text: as §1, §2, §3, §4, §5
To Eppendorf tubes in which 5 μl of samples to be measured (serum) were contained, 100 μl of methanol was added, and 10 μl of 1 μg/ml of I.S. standard solution was added thereto, and then, the mixtures were thoroughly mixed by an ultrasonic treatment and a vortex mixer. The resulting mixtures were centrifuged (15,000 rpm, 5 min, room temperature), and the resulting supernatants were subjected to centrifugal filtration (10,000 rpm, 2 min, room temperature) with a filter, and the resulting filtrates were used as injection samples for LC-MS/MS.
as §6

In a further data set the test system is CYP2D6. The experiment in a line: in vivo. The following applies: uPA(+/+)/SCID, po. As for the experimental part:
As for the chimeric mice, chimeric mice produced in PhoenixBio Co., Ltd. were used. To be more specific, 3 mice in which human hepatocytes were engrafted and proliferated in the mouse liver were produced by transplanting human hepatocytes (BD51, purchased from BD Gentist Inc.) into the spleen of uPA(+/+)/SCID mice, which are mice having hepatic impairment and immunodeficiency.
Paroxetine was dissolved in Milli-Q water (using a bath-type ultrasonic device) and prepared to give a final concentration of 6 mg/ml. The prepared drug was intraperitoneally administered to the mice at a dose of 5 μl/g b.w. (30 mg/kg b.w./day).
To the high-replacement chimeric mice, paroxetine was intraperitoneally administered for 3 days. Then, in the same manner as in Example 1, 5 compounds were simultaneously administered orally by gavage, the blood was collected over time, and the serum was stored.
The determination and analysis of drugs in the serum were carried out in the same manner as in Example 1.
The determined values of the drug concentration in the serum were calculated from the peak area ratio obtained by the LC-MS/MS measurement of the samples for addition calibration curve. […] From the graphs, Cmax, t1/2 and AUC were analyzed.

[2] abbreviates: uPA(+/+)/SCID, mouse, in vivo, iv.
The mark [3] stands for this setting: uPA(+/+)/SCID, mouse, in vivo, iv, t 1/2 Distribution phase.
[4] abbreviates: uPA(−/−)/SCID, mouse, in vivo, iv, AUC.
Setting [5] is: uPA(−/−)/SCID, mouse, in vivo, iv, t 1/2 Distribution phase.
Setting [6] is: uPA(−/−)/SCID, mouse, in vivo, iv, t 1/2 Elimination phase.
Setting [7] is: uPA(−/−)/SCID, mouse, in vivo, po, AUC.
Where [8] appears, read: uPA(−/−)/SCID, mouse, in vivo, po.
Where [9] appears, read: mouse, t 1/2 Distribution phase.
The mark [10] stands for this setting: uPA(+/+)/SCID, mouse, in vivo, po.
Setting [11] is: uPA(+/+)/SCID, mouse, in vivo, po, t 1/2 Distribution phase.

For `CCCCNC(=O)NS(=O)(=O)c1ccc(C)cc1` [Tolbutamide, tolbutamide], the “AUC in high-replacement chimeric mice compared with low-replacement chimeric mice” value in data set [1] was “significantly lower”; in the data set “in vivo” (mouse, in vivo), “significantly lower”. In addition, the AUC stood at 20600 ng·h/mL in “in vivo” (setting [2]); 16800 ng·h/mL in “in vivo” (uPA(+/+)/SCID, mouse, in vivo, iv, AUC); 11500 ng·h/mL in “in vivo” (setting [4]); 95300 ng·h/mL in “in vivo” (setting [7]); 115000 ng·h/mL in the data set on CYP2D6 (mouse). In addition, in the data set “in vivo” (setting [2]), the “t 1/2 Distribution phase” value is 0.865^#3 hr. Moreover, the half-life in the data set “in vivo” (setting [3]) was 0.982 h; in the data set “in vivo” (uPA(+/+)/SCID, mouse, in vivo, po, t 1/2 Elimination phase), 4.3 h; in “in vivo” (setting [5]), 2.84 h; in “in vivo” (setting [6]), 2.56 h; with CYP2D6 (setting [9]) it was 3.31 h. Also, the bioavailability in the data set “in vivo” (setting [8]) came to 82.9%. Besides, the Cmax in the data set “in vivo” (setting [8]) came to 16900 ng/mL.
As for `CC[C@H]1OC(=O)[C@H](C)[C@@H](O[C@H]2C[C@@](C)(OC)[C@@H](O)[C@H](C)O2)[C@H](C)[C@@H](O[C@@H]2O[C@H](C)C[C@H](N(C)C)[C@H]2O)[C@](C)(O)C[C@@H](C)C(=O)[C@H](C)[C@@H](O)[C@]1(C)O` [Erythromycin, erythromycin], the figures for the AUC (in data set [1]; in “in vivo” (setting [4]); in the data set “in vivo” (setting [7])) were 21300 ng·h/mL, 13800 ng·h/mL and 4080 ng·h/mL, respectively. Besides, the “t 1/2 Distribution phase” value in “in vivo” (setting [10]) is on record as 2.22^#3 hr. The half-life in “in vivo” (setting [11]) is 4.38 h; in “in vivo” (setting [5]) it was 0.35 h; in “in vivo” (setting [6]), 1.1 h. The bioavailability in the data set “in vivo” (setting [8]) worked out at 2.95%. For the same molecule, the Cmax in the data set “in vivo” (setting [8]) was found to be 1000 ng/mL.
Take `Cn1c(=O)c2c(ncn2C)n(C)c1=O` [Caffeine, caffeine]: the “AUC in high-replacement chimeric mice compared with low-replacement chimeric mice” value in data set [1] is on record as “significantly lower”. Moreover, the AUC in data set [1] stood at 65700 ng·h/mL; in the data set “in vivo” (setting [4]), 4070 ng·h/mL; in “in vivo” (setting [7]) it was 33200 ng·h/mL; in the data set on CYP2D6 (mouse) it was 97100 ng·h/mL. For the same molecule, the entries for the “t 1/2 Distribution phase” value in the data set “in vivo” (setting [2]) and in “in vivo” (setting [10]) were 0.437^#3 hr and 2.16^#3 hr, respectively. Further, the half-life was 0.809 h in the data set “in vivo” (setting [3]); 3.45 h in “in vivo” (setting [11]); 0.609 h in the data set “in vivo” (setting [5]); 0.505 h in the data set “in vivo” (setting [6]); 0.82 h in the data set “in vivo” (uPA(−/−)/SCID, mouse, in vivo, po, t 1/2 Elimination phase); 3.4 h with CYP2D6 (setting [9]). For the same molecule, the bioavailability in “in vivo” (setting [8]) stood at 81.6%. The peak concentration (Cmax) in “in vivo” (setting [8]) amounted to 8800 ng/mL.
In the case of `COc1ccc2c(c1)[C@]13CCCC[C@@H]1[C@H](C2)N(C)CC3` [Dextromethorphan, dextromethorphan], in the data set “in vivo” (donor hepatocytes IVT079), the “AUC in high-replacement chimeric mice compared with low-replacement chimeric mice” value was “significantly lower”. Also, the AUC in “in vivo” (uPA(+/+)/SCID, mouse, in vivo, iv, AUC, intravenous administration, high-replacement chimeric mouse, donor IVT079) came out at 4030 ng·h/mL; in the data set “in vivo” (uPA(+/+)/SCID, mouse, in vivo, iv, AUC, intravenous administration, low-replacement chimeric mouse, donor IVT079), 4600 ng·h/mL; in the data set “in vivo” (uPA(+/+)/SCID, mouse, in vivo, po, AUC, oral administration, high-replacement chimeric mouse, donor IVT079), 1020 ng·h/mL; in “in vivo” (uPA(+/+)/SCID, mouse, in vivo, po, AUC, oral administration, low-replacement chimeric mouse, donor IVT079), 3650 ng·h/mL; in “in vivo” (uPA(−/−)/SCID, mouse, in vivo, iv, AUC, intravenous administration, uPA(−/−)/SCID mouse), 2610 ng·h/mL; in the data set “in vivo” (uPA(−/−)/SCID, mouse, in vivo, po, AUC, oral administration, uPA(−/−)/SCID mouse), 580 ng·h/mL. Also, the AUC in the data set with CYP2D6 (in vivo) turned out to be 358 ng·h/mL. The half-life in the data set “in vivo” (uPA(+/+)/SCID, mouse, in vivo, iv, t 1/2 Distribution phase, intravenous administration, high-replacement chimeric mouse, donor IVT079, time window per footnote) was 3.15 h; in “in vivo” (uPA(+/+)/SCID, mouse, in vivo, iv, t 1/2 Distribution phase, intravenous administration, low-replacement chimeric mouse, donor IVT079, time window per footnote), 0.414 h; in the data set “in vivo” (uPA(+/+)/SCID, mouse, in vivo, iv, t 1/2 Elimination phase, intravenous administration, high-replacement chimeric mouse, donor IVT079, 2-8 hr), 1.23 h; in “in vivo” (uPA(+/+)/SCID, mouse, in vivo, iv, t 1/2 Elimination phase, intravenous administration, low-replacement chimeric mouse, donor IVT079, 2-8 hr), 1.5 h; in the data set “in vivo” (uPA(+/+)/SCID, mouse, in vivo, po, t 1/2 Distribution phase, oral administration, high-replacement chimeric mouse, donor IVT079, time window per footnote), 1.15 h; in the data set “in vivo” (uPA(+/+)/SCID, mouse, in vivo, po, t 1/2 Distribution phase, oral administration, low-replacement chimeric mouse, donor IVT079, time window per footnote) it was 2.88 h. Also, the half-life in the data set “in vivo” (uPA(+/+)/SCID, mouse, in vivo, po, t 1/2 Elimination phase, oral administration, high-replacement chimeric mouse, donor IVT079, time window per footnote) is 10.4 h; in “in vivo” (uPA(+/+)/SCID, mouse, in vivo, po, t 1/2 Elimination phase, oral administration, low-replacement chimeric mouse, donor IVT079, time window per footnote), 9.98 h; in “in vivo” (uPA(−/−)/SCID, mouse, in vivo, iv, t 1/2 Distribution phase, intravenous administration, uPA(−/−)/SCID mouse, time window per footnote), 0.47 h; in “in vivo” (uPA(−/−)/SCID, mouse, in vivo, po, t 1/2 Distribution phase, oral administration, uPA(−/−)/SCID mouse, time window per footnote), 2.45 h; with CYP2D6 (in vivo, t 1/2 Distribution phase, high-replacement chimeric mouse, donor BD51, inhibitor paroxetine, time window per footnote), 1.44 h; with CYP2D6 (in vivo, t 1/2 Elimination phase, high-replacement chimeric mouse, donor BD51, inhibitor paroxetine, time window per footnote) it was 5.29 h. Also, the bioavailability was determined as 2.53% in the data set “in vivo” (uPA(+/+)/SCID, mouse, in vivo, po, high-replacement chimeric mouse, donor IVT079); 7.93% in the data set “in vivo” (uPA(+/+)/SCID, mouse, in vivo, po, low-replacement chimeric mouse, donor IVT079); 2.22% in the data set “in vivo” (uPA(−/−)/SCID, mouse, in vivo, po, uPA(−/−)/SCID mouse). Moreover, the Cmax came out at 276 ng/mL in the data set “in vivo” (uPA(+/+)/SCID, mouse, in vivo, po, oral administration, high-replacement chimeric mouse, donor IVT079, serum); 836 ng/mL in “in vivo” (uPA(+/+)/SCID, mouse, in vivo, po, oral administration, low-replacement chimeric mouse, donor IVT079, serum); 130 ng/mL in the data set “in vivo” (uPA(−/−)/SCID, mouse, in vivo, po, oral administration, uPA(−/−)/SCID mouse, serum, dose per drug in table); 156 ng/mL with CYP2D6 (in vivo, 30 mg/kg/day).
